Source: ChEMBL document CHEMBL1140941 (J Med Chem, 2009)
Calls of active or inactive are those of the source. The calls are words filed in the database; no cut-off is given here.

Columns and labels:
[1] = biological target: Oxysterols receptor LXR-beta (Homo sapiens) (UniProt P55055); assay: Agonist activity at LXRbeta expressed in african green monkey CV1 cells co-expressing LXRE by luciferase reporter gene assay; type: functional, cell-based; conditions: CV-1
[2] = biological target: T1, Peroxisome proliferator-activated receptor gamma (Homo sapiens) (UniProt P37231); assay: Agonist activity at PPARgamma expressed in african green monkey CV1 cells co-expressing PPRE by luciferase reporter gene assay; type: functional, cell-based; conditions: CV-1
T1 sequence (whole entry): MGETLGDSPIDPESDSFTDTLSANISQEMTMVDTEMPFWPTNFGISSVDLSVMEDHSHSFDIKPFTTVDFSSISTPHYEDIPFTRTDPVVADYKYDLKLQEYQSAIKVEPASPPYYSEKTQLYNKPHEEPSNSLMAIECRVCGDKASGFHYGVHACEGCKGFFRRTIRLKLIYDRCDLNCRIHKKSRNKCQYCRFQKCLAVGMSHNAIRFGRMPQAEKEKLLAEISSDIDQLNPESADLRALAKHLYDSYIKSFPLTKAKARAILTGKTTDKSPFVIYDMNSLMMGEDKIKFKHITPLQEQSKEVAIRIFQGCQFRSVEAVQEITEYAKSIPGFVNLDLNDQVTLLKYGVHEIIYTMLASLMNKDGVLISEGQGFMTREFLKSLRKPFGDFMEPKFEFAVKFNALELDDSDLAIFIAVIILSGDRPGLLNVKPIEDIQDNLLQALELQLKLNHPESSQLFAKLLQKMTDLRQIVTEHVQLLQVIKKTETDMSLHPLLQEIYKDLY

[3] = biological target: Vitamin D3 receptor (Homo sapiens) (UniProt P11473); assay: Agonist activity at VP16-VDR expressed in african green monkey CV1 cells co-expressing MH100 by luciferase reporter gene assay; type: functional, cell-based; conditions: CV-1
Chain of Vitamin D3 receptor (Homo sapiens) (P11473 whole entry): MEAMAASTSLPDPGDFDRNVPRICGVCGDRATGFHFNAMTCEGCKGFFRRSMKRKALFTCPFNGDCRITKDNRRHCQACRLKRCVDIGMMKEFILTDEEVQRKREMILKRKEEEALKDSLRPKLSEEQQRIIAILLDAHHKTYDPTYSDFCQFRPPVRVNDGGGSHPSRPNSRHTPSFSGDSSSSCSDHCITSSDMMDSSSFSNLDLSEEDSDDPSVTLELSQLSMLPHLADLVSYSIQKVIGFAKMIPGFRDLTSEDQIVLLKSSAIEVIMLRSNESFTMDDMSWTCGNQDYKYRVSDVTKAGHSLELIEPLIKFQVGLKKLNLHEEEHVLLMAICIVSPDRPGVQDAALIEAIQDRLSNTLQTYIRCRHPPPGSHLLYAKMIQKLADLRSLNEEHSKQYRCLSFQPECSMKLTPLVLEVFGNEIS

[4] = biological target: Nuclear receptor subfamily 1 group I member 2 (Homo sapiens, UniProt O75469); assay: Agonist activity at SXR expressed in african green monkey CV1 cells co-expressing MH100 by luciferase reporter gene assay; type: functional, cell-based; conditions: cv-1
Chain of Nuclear receptor subfamily 1 group I member 2 (O75469 whole entry): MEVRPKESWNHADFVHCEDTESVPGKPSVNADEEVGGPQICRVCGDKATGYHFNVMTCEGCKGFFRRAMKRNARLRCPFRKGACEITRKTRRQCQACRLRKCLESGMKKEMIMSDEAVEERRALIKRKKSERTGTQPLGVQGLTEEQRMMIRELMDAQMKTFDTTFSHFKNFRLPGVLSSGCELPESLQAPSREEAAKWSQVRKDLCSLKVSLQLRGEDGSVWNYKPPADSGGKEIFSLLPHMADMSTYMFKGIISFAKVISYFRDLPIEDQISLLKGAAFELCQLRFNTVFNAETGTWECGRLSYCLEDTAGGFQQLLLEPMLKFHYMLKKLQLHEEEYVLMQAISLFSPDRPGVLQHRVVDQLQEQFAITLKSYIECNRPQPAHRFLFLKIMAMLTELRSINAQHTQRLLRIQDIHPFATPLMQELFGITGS

[5] = biological target: T2, Peroxisome proliferator-activated receptor alpha (Homo sapiens) (UniProt Q07869); assay: Agonist activity at PPARalpha expressed in african green monkey CV1 cells co-expressing MH100 up to 10 uM by luciferase reporter gene assay relative to control; type: functional, cell-based; conditions: CV-1
T2 sequence (whole entry): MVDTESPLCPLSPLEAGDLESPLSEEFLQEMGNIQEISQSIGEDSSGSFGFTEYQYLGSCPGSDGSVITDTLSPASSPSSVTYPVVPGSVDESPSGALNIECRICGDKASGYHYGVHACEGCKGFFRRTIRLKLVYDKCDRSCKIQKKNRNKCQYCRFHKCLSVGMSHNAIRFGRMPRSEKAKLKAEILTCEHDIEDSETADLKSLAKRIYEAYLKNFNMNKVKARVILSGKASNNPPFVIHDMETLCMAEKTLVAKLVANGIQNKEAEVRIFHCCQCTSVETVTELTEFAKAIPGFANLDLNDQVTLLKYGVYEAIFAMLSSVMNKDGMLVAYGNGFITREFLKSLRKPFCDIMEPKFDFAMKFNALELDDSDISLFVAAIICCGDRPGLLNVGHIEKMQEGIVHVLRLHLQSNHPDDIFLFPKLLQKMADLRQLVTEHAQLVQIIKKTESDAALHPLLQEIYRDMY

[6] = biological target: Retinoic acid receptor RXR-alpha (Homo sapiens) (UniProt P19793); assay: Agonist activity at RXRalpha-LBD expressed in african green monkey CV1 cells co-expressing MH100 up to 10 uM by luciferase reporter gene assay relative to control; type: functional, cell-based; conditions: CV-1
Chain of Retinoic acid receptor RXR-alpha (Homo sapiens) (P19793 whole entry, the tested form may be a part): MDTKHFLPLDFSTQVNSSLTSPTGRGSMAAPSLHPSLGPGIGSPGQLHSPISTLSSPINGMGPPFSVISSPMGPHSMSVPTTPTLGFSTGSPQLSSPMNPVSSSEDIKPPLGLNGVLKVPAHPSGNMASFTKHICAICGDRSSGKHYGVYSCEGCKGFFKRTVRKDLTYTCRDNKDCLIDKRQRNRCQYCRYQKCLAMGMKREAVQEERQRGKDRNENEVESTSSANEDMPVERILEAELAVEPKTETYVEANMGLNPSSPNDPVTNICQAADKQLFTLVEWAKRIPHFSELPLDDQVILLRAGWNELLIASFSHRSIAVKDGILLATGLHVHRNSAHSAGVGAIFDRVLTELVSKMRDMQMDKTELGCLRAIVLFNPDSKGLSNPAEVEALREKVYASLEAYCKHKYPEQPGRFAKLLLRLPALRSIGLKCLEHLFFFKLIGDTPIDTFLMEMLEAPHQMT

[7] = biological target: T3, Glucocorticoid receptor (Homo sapiens) (UniProt P04150); assay: Agonist activity at gal-GR expressed in african green monkey CV1 cells co-expressing MH100 up to 10 uM by luciferase reporter gene assay relative to control; type: functional, cell-based; conditions: CV-1
T3 sequence (whole entry): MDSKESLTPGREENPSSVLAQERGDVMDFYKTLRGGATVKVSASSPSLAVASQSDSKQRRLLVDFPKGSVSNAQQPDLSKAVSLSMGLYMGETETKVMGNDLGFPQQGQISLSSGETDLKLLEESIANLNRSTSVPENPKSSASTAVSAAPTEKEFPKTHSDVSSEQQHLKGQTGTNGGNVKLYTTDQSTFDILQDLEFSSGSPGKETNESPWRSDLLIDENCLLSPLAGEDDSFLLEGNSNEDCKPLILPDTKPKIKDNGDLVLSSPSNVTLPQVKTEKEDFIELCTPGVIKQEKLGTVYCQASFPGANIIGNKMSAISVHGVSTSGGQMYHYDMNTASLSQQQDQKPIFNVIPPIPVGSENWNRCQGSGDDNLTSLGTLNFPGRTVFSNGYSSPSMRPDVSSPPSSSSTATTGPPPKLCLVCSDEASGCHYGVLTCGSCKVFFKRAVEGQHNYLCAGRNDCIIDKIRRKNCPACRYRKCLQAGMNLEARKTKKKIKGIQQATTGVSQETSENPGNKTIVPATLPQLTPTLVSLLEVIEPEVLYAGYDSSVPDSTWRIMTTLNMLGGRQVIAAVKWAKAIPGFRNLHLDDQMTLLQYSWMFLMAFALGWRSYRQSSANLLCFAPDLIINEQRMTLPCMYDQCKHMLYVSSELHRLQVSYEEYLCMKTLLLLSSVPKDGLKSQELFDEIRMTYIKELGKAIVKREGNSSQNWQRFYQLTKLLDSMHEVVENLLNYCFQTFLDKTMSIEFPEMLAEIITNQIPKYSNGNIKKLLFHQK

[8] = AUC (0 to t) in CD rat at 3 mg/kg, po; type: ADME, organism-based; design: dose 3 mg/kg, route oral; conditions: plasma
[9] = Oral bioavailability in CD rat at 3 mg/kg; type: ADME, organism-based; conditions: in vivo

Chain of Oxysterols receptor LXR-beta (Homo sapiens) (P55055 whole entry): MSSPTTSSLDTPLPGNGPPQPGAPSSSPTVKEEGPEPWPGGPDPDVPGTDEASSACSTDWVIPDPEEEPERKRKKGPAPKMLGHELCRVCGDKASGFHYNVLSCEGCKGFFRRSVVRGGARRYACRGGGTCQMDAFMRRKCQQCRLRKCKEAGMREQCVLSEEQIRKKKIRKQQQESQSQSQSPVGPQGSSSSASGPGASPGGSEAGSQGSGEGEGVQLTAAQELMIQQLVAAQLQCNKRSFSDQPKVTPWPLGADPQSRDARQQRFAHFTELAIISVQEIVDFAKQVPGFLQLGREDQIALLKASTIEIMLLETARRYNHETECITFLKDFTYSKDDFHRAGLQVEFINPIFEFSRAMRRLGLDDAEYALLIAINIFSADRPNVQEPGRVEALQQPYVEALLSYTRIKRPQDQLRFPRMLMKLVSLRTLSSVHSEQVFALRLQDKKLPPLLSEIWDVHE

Activity [1]: inactive | Activity [2]: inactive | Activity [3]: inactive | Activity [4]: Not Active | Activity [5]: inactive | Activity [6]: inactive | Activity [7]: inactive | AUC(0-t) [8]: 7 µM·h | bioavailability [9]: 37.6%
Structure (SMILES): CC(C)OC(=O)C1=CN(C(=O)c2ccc(F)c(F)c2)CC(C)(C)c2c1[nH]c1ccccc21 [TUROFEXORATE ISOPROPYL]
